Laboratory results as given in patent US20230406883A1, “COMPOUNDS AND THEIR USE IN TREATMENT OF TACHYKININ RECEPTOR MEDIATED DISORDERS” (Embark Biotech ApS, priority 2020, published 2023).
Like-named read-outs stand apart in the source and are kept apart here. Numbered stars: 1 amine (or outer) side, 2 acyl side, 3 side chain; on linkers, the order of the positions; unused ones are H or OH. Square brackets hold non-standard residues; d marks the D form. Peptide text beside a SMILES is read from it. * marks the point of attachment. C18 diacid = O=C(O)CCCCCCCCCCCCCCCCC(=O)*; γGlu = O=C(O)[C@H](CCC(=O)[*:2])N[*:1]; Stearoyl = CCCCCCCCCCCCCCCCCC(=O)*; NMeL = CN[C@@H](CC(C)C)C(=O)O; hSer = N[C@@H](CCO)C(=O)O; Nle = CCCC[C@H](N)C(=O)O; AEEA = NCCOCCOCC(=O)O; Aib = CC(C)(N)C(=O)O

How the values were obtained:
hNK2R [1] = biological target: T1, hNK2R (Homo sapiens, UniProt P21452); assay: IP3 assay (inositol trisphosphate, 3H-myoinositol) in transiently transfected COS-7 cells; type: cell-based; conditions: for EC50: 0.2% ovalbumin buffer
T1 construct: host or cells: COS-7
T1 sequence (P21452 1-398): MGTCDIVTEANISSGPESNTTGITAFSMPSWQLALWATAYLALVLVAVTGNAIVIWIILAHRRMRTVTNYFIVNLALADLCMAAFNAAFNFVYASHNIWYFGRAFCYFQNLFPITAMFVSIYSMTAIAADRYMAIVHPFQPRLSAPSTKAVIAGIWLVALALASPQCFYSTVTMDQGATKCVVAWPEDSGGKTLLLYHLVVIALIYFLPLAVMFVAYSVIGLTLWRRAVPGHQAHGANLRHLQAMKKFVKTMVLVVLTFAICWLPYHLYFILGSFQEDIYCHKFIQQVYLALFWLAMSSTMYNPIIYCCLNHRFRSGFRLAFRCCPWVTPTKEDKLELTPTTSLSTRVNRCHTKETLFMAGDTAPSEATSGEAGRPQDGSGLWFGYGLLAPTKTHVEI
Procedure, shortened: (§1)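 COS-7 cells were transiently transfected with receptor plasmid and labelled with ³H-myo-inositol. Cells were lysed in formic acid, and ³H-inositol phosphates were captured on SPA YSI beads and counted.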

hNK1R = biological target: T2, hNK1R (Homo sapiens, UniProt P25103); assay: as above; type: cell-based; conditions: for EC50: 0.2% ovalbumin buffer
T2 construct: host or cells: COS-7
Procedure, shortened: as §1

hNK3R = biological target: T3, hNK3R (Homo sapiens, UniProt P29371); assay: as above; type: cell-based; conditions: for EC50: 0.2% ovalbumin buffer, read-out: hNK3, IP3 EC50
T3 construct: host or cells: COS-7
T3 sequence (P29371 1-465): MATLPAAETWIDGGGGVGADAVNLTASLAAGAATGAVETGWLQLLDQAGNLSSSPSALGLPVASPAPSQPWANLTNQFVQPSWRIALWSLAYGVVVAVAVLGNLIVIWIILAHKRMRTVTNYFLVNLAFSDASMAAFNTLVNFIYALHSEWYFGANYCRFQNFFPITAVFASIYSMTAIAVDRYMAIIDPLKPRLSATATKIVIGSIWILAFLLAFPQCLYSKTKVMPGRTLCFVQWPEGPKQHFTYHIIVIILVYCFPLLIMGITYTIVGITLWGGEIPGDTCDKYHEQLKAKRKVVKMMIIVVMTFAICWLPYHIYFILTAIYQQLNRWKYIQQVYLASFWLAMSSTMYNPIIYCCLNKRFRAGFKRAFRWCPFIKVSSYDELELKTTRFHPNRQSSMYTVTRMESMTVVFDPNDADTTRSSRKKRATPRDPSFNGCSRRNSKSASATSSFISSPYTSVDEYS
Procedure, shortened: as §1

in vivo = assay: in vivo; set-up: species or system mice; conditions: mouse, sc, 0.5 mg/kg, Half-life
Method: Pharmacokinetics: To evaluate the in vivo half-life of individual peptide analogues we used wild type lean mice at around 10 weeks of age injected once with a peptide analogue. For each sample time point 3-4 mice were used and blood was drawn from the submandibular vein at indicated time points following injection. Prior to injection mice were given ad libitum access to standard chow diet. Mice were subcutaneously injected with 0.5 mg/kg peptide analogue in a volume of 2 ml/kg. The amount of peptide analogue and metabolite(s) present in blood samples were measured by TF-LC-MS and MetID-LC-MS, respectively. Sample preparation: One volume of plasma is precipitated with three volumes of ethanol (with internal standard). The mixture is centrifuged at 13000 g for 20 min. One volume of supernatant is diluted with two volumes of Milli-Q water (1% formic acid). Calibration curve: peptide analogue was spiked into blank mouse plasma. Range: 0.5 to 2000 nM (linear 1/x2).

hNK2R [2] = biological target: T1, hNK2R; assay: Indirect human serum albumin binding by IP3 assay, 0.2% ovalbumin vs 1% HSA; type: cell-based
Method: (§2) Agonist-induced G-protein coupled receptor (GPCR) activation was measured by an Inositol-1,4,5-Trisphosphate [^3H] Radioreceptor Assay (IPs Assay). Assays were carried out using COS-7 cells transiently transfected by calcium phosphate transfection with a vector pcDNA3.1(+) encoding one of the indicated receptors (Genscript). Briefly, DNA mixed with CaCl2 (2 M) and TE-buffer (10 mM Tris-HCl, 1 mM EDTA, pH 7.5) was dropwise added to 2×HBS (50 mM HEPES, 280 mM NaCl, 1.5 mM NaH2PO4, pH 7.2) and incubated for 45 min at room temperature (22±2° C.). The mixture and a final concentration of 100 μM Chloroquine were added to the cells and left to incubate for 5 hours at 37° C. under standard cell culture conditions (10% CO2) before changing medium to fresh medium containing 5 μl/mL Myo-[2-^3H(N)]-inositol (labeling medium).
The indirect HSA binding IP3 assay takes advantage of the tachykinin receptors' ability to induce production of the inositol trisphosphate (IP3) second messenger upon agonist (ligand) binding on receptor expressing cells following an initial ^3H-inositol labeling period. The assay relies on the assumption that high peptide HSA binding will result in low receptor-mediated production of the second messenger IP3. Thus, the assay is an indirect assessment HSA binding.
Assay solutions used: Wash buffer (HBSS), Assay buffer 0.2% OvAlb (HBSS+10 mM LiCl and 0,2% w/v ovalbumin) or Assay buffer 1% HSA (HBSS+10 mM LiCl and 1% w/v HSA), Lysis buffer (10 mM formic acid), and SPA YSI beads (12.5 mg/ml in H2O). The assay was performed the day after transfection. Briefly, labelling medium was aspirated, and plates were washed ×1 in wash buffer before adding 100 μl assay buffer 0.2% OvAlb or assay buffer 1% HSA, pre-incubated for 30 min followed by 120 min incubation with agonist, both at 37° C. After incubation, plates were immediately placed on ice and the incubation medium was aspirated and 40 μl of 10 mM formic acid per well was added. Plates were incubated for at least 30 min on ice. 60 μl (1 mg/well) SPA YSI beads/well was pipetted into a solid white 96 wells plate and 35 μl of the lysis solution was transferred to the plate before covering plates with seal cover and shaking for 10 min. (max speed). Centrifuge plates and leave for 8 hours at room temperature before counting the plates in a MicroBeta plate counter (Perkin Elmer).

hNK2R [3] = biological target: T1, hNK2R; assay: 3H-NKA competitive binding on transfected COS-7 cells; conditions: competition with 3H-NKA, 4 h at 4 C
Method: as §2, with “Assays” for “Agonist-induced G-protein coupled receptor (GPCR) activation was measured by an Inositol-1,4,5-Trisphosphate [^3H] Radioreceptor Assay (IPs Assay). Assays”, “maintenance medium.” for “medium containing 5 μl/mL Myo-[2-^3H(N)]-inositol (labeling medium).”
The ^3H-NKA binding assay measures peptide-receptor binding by a competitive principle of receptor binding between radioactively labelled (3H) NKA (tracer) and synthesized peptide ligands on live cells expressing the receptor of interest. Assay solutions used: TKR buffer (50 mM Tris/HCl pH 7.5, 5 mM MnCl2, and 150 mM NaCl), wash buffer (TKR buffer+0.2% w/v OvAlb), binding buffer (wash buffer+0.1 mg/ml Bacitracin), and tracer solution (binding buffer+˜15000 cpm/well ^3H-tracer). The assay was performed on ice the day after transfection.
Briefly, maintenance medium was aspirated, and plates were washed ×1 in cold wash buffer before adding 100 μl cold binding buffer and placing at 4° C. to let plates cool. The cold plates were added indicated peptides (ligand) immediately followed by addition of cold tracer solution (˜15000 cpm/well). Plates were immediately moved to 4° C. and incubated for 4 hours. After incubation, binding was stopped by wash ×2 with cold wash buffer before adding 225 μl Ultima Gold XR. Plates were shaken at medium speed for approximately 30 min and left overnight at room temperature before counting the plates in a MicroBeta plate counter (Perkin Elmer).

hNK2R [4] = biological target: T1, hNK2R; assay: Hithunter cAMP assay (Gs-coupling) in transfected COS-7 cells; type: cell-based
Method: as §2, with “As a secondary measure of agonist-induced” for “Agonist-induced”, “activation cyclin adenosine monophosphate (cAMP)” for “activation”, “the Hithunter cAMP-assay from DiscoverX.” for “an Inositol-1,4,5-Trisphosphate [^3H] Radioreceptor Assay (IPs Assay).”, “maintenance medium.” for “medium containing 5 μl/mL Myo-[2-^3H(N)]-inositol (labeling medium).”
The cAMP-assay takes advantage of the tachykinin receptors' ability to induce production of the cAMP second messenger upon agonist (ligand) binding on receptor expressing cells. Production of cAMP stems from receptor coupling to Gs-protein although coupling to Gq-protein (IP3-production) is considered the primary signalling mechanism by tachykinin receptors.
The assay was performed the day after transfection. Briefly, maintenance medium was aspirated, and plates were washed ×1 in HBSS before adding assay buffer (HBSS+1 mM IBMX), pre-incubated for 30 min at 37° C. followed by 15 min incubation with agonist (ligand) at 37° C. After incubation, plates were subjected to cell lysis and anti-cAMP-antibody incubation as described by manufacturer. Luminescence was measured with EnVision Multimode Plate Reader from Perkin Elmer.

[5] = COS-7 cells, figure legends: percent of 10^-6 M NKA
[6] = 0.2% ovalbumin, read-out: hNK2R, Albumin binding EC50 (nM)-ovalbumin
[7] = 1% HSA, read-out: hNK2R, Albumin binding EC50 (nM)-1% human serum albumin

T2 sequence (P25103 whole entry): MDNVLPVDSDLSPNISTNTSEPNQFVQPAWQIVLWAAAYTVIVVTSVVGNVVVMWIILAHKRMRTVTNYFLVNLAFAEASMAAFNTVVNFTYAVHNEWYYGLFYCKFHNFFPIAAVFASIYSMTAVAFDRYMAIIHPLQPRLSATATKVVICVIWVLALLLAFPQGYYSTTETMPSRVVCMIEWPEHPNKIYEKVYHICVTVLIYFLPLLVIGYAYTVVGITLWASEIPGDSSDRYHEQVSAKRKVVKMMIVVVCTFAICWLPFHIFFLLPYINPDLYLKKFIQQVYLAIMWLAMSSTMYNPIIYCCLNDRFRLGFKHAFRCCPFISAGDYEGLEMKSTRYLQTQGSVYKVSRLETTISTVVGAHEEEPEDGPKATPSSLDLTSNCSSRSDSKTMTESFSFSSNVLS

| half-life (in vivo) [h] | hNK2R, IP3 Efficacy (hNK2R [1]) [%] | hNK1R, IP3 Efficacy (hNK1R) [%] | hNK3, IP3 Efficacy (hNK3R) [%] | hNK2R, cAMP Efficacy (hNK2R [4]) [%] | SMILES | EC50 (hNK2R [1]; COS-7 cells) [nM] | hNK2R, IP3 Efficacy (hNK2R [1]; [5]) [%] | EC50 (hNK1R; COS-7 cells) [nM] | hNK1R, IP3 Efficacy (hNK1R; [5]) [%] | EC50 (hNK3R; COS-7 cells) [nM] | hNK3, IP3 Efficacy (hNK3R; [5]) [%] | hNK2R, Albumin binding Efficacy (%)-ovalbumin (hNK2R [2]; 0.2% ovalbumin) [%] | EC50 (hNK2R [2]; [6]) [nM] | hNK2R, Albumin binding Efficacy (%)-1% human serum albumin (hNK2R [2]; 1% HSA) [%] | EC50 (hNK2R [2]; [7]) [nM] | EC50 (hNK2R [3]) [nM] | EC50 (hNK2R [4]; COS-7 cells) [nM] | hNK2R, cAMP Efficacy (hNK2R [4]; COS-7 cells) [%] |
| --- | --- | --- | --- | --- | --- | --- | --- | --- | --- | --- | --- | --- | --- | --- | --- | --- | --- | --- |
| 1.7 | – | – | – | – | CCCCCCCCCCCCCCCCCC(=O)N[C@@H](CCC(=O)NCCOCCOCC(=O)NCCOCCOCC(=O)N[C@@H](CC(=O)O)C(=O)N[C@@H](CCCCN)C(=O)N[C@@H](Cc1ccc(O)cc1)C(=O)N[C@H](C(=O)NCC(=O)N(C)[C@@H](CC(C)C)C(=O)N[C@@H](CCCC)C(N)=O)C(C)C)C(=O)O [compound 390, *Asp;Lys;Tyr;Val;Gly;NmLeu;Nle;NH2] ({Stearoyl-γGlu-AEEA-AEEA}-DKYVG[NMeL][Nle]-NH2) | 1 | 100 | 3.9 | 88 | 14 | 100 | 100 | 1 | 90 | 0.7 | – | – | – |
| – | – | – | – | – | CCCCCCCCCCCCCCCCCC(=O)N[C@@H](CCC(=O)NCCOCCOCC(=O)NCCOCCOCC(=O)N[C@@H](CC(=O)O)C(=O)N[C@@H](CCCCN)C(=O)N[C@@H](Cc1ccc(O)cc1)C(=O)N[C@H](C(=O)NCC(=O)N(C)[C@@H](CC(C)C)C(=O)N[C@@H](CCOC)C(N)=O)C(C)C)C(=O)O [compound 391, *Asp;Lys;Tyr;Val;Gly;NmLeu;Metox;NH2] ({Stearoyl-γGlu-AEEA-AEEA}-DKYVG[NMeL][hSer](Me)-NH2) | 0.9 | 90 | 3.4 | 100 | 4 | 100 | 100 | 0.9 | 90 | 0.6 | – | – | – |
| – | – | – | – | – | COCC[C@H](NC(=O)[C@H](CC(C)C)NC(=O)C(C)(C)NC(=O)[C@@H](NC(=O)[C@H](Cc1ccc(O)cc1)NC(=O)[C@H](CCCCN)NC(=O)[C@H](CC(=O)O)NC(=O)COCCOCCNC(=O)COCCOCCNC(=O)CC[C@H](NC(=O)CCCCCCCCCCCCCCCCC(=O)O)C(=O)O)C(C)C)C(N)=O [compound 394, *Asp;Lys;Tyr;Val;Aib;Leu;Metox;NH2] ({C18 diacid-γGlu-AEEA-AEEA}-DKYV[Aib]L[hSer](Me)-NH2) | 5 | 90 | ~940 | 35 | – | 0 | – | – | – | – | ~108 | 306 | 100 |
| – | 68 | 0 | 0 | 0 | CCCC[C@H](NC(=O)[C@H](CC(C)C)NC(=O)C(C)(C)NC(=O)[C@@H](NC(=O)[C@H](Cc1ccc(O)cc1)NC(=O)[C@H](CCCCN)NC(=O)[C@H](CC(=O)O)NC(=O)COCCOCCNC(=O)COCCOCCNC(=O)CC[C@H](NC(=O)CCCCCCCCCCCCCCCCC(=O)O)C(=O)O)C(C)C)C(N)=O [compound 395, *Asp;Lys;Tyr;Val;Aib;Leu;Nle;NH2] ({C18 diacid-γGlu-AEEA-AEEA}-DKYV[Aib]L[Nle]-NH2) | 9 | – | – | – | – | – | – | – | – | – | ~104 | – | – |
